The nature of series [1]: Unidirectional brain extraction (Brain Uptake Index), single intracarotid injection. The series is classed as in vivo, Wistar rats. As to conditions: rat, 5 s after intracarotid injection, Ringer buffer as vehicle. Here is the method: The unidirectional influx for [^14C]-42 was measured by the brain sampling single injection technique in adult male Wistar rats (˜220 g) under anesthesia (ketamine 130 mg/kg i.m., xylazine 1.3 mg/kg i.m.) (Oldendorf, W. H. “Measurement of brain uptake of radiolabeled substances using tritiated water internal standard” Brain Res., 1970, 24, 372-376). A bolus of ˜220 μL 0.001 M HEPES-buffered Ringer's solution pH 7.4, or rat plasma, was rapidly injected into the common carotid artery. The bolus contained [^14C]-42 (68 μg/mL) together with tritiated water (25 μCi/mL); the amount of ethanol in the injectate was 1% (v/v). The animals were decapitated 5 seconds after the injection. […] The percentage BUI (Brain Uptake Index) was calculated as […]
The brain extraction ratio E was calculated from E=BUI*0.62, where 0.62 represents the brain extraction ratio of tritiated water (Pardridge, W. M. et al. “Absence of albumin receptor on brain capillaries in vivo or in vitro” Am. J. Physiol, 1985, 249, E264-E267). In order to quantify a possible sequestration of [^14C]-42 by the brain microvasculature, the brain hemispheres of 3 rats were submitted to capillary depletion (Triguero, D, et al. “Capillary depletion method for quantifying the blood-brain barrier transcytosis of circulating peptides and plasma proteins” J. Neurochem, 1990, 54, 1882-1888). […]

A short description of series [2]: Urinary excretion and metabolite patterns in blood and urine. As to conditions: for Urinary excretion of parent drug: underestimates (urine lost). The series is classed as in vivo, rat. As for the experimental part: Metabolite patters were determined in blood extracts and in urine. Blood was pooled from the 3 intravenously dosed rats of the pharmacokinetic study and from 3 additional rats treated in the same way. Urine was obtained from the animals of the pharmacokinetic study.
Between 0.3 and 0.6 mL of pooled diluted blood were spiked with 10-20 μg unlabeled compound 42-ch, extracted with 10 mL of methanol (HPLC grade, Rathburn) by sonication and centrifuged. The pellet was extracted once more in the same way. The two supernatants were combined and evaporated under reduced pressure at 35° C. on a rotary evaporator. The residue was transferred into a smaller vial by means of methanol and water, evaporated under a stream of nitrogen and taken up in 80 μl methanol and 320 μl water or in 120 μl methanol and 280 μl water by sonication. The suspension was centrifuged and a 300 μl aliquot of the supernatant was injected onto the HPLC column. The extraction yield of radioactivity was only 45±12% (mean ISD).
To urine samples, acetonitrile (˜5% v/v), TFA (to obtain a pH of ˜3) and unlabeled compound 42-ch (˜4 μg per volume analyzed) were added. The mixtures were centrifuged and 1-2 mL of supernatant were injected onto the HPLC column.
The chromatography was performed using HP 1090 liquid chromatograph (Hewlett-Packard). The radioactivity of the column eluate was measured by liquid scintillation counting either off-line or on-line using a Berthold LB 507A radioactivity monitor. The samples were chromatographed on a reversed-phase column (Nucleosil 100, C18AB, 250×4.6 mm, 5 μm particle size, Macherey-Nagel) protected by a corresponding 8×4 mm precolumn. The column temperature was 40° C. The components were eluted with a gradient of 0.02% v/v trifluoroacetic acid (TFA, Pierce) in water (mobile phase A, pH 2.8) versus acetonitrile (HPLC grade S, Rathburn; mobile phase B). The proportion of solvent B was kept at 5% up to 5 minutes after injection and was then increased in linear segments to 40% at 110 minutes and 100% at 120 minutes where it was kept for another 10 minutes. The total flow rate was 1 mL/min. The unlabeled parent drug, added as a retention time marker, was monitored by UV detection at 216 nm.

A further series can be described thus: in vivo. As to conditions: male, Wistar, rat.

Where “and” joins values, the source holds several entries; their conditions need not be identical. Equal entries are not always repeated.

Method for in vivo: The pharmacokinetic study was performed with 3 male Wistar rats (BRL) weighing 300-330 g with a one week interval between administration phases. The day before the first dosing, the rats underwent surgical implantation of an in-dwelling cannula; the right femoral artery was cannulated and the tube was passed subcutaneously to emerge at the back of the neck. The animals were individually housed in metabolism cages and fasted overnight before administrations.
The dose solution was administered (5 mL/kg) by gastric incubation.
The dose solution was administered (2 mL/kg) into the surgically exposed femoral vein.
During the study, 18 blood samples (100-500 μL) were taken, up to 48 hours post-dose from the cannulated femoral artery representing a total volume of 5.7 mL blood. The loss of blood was compensated by infusion of 6 times 1 mL of blood from donor rats. Urine samples were collected up to 48 hours post-dose. For the analysis of the in vivo brain distribution, 3 male rats were intravenously dosed (1 mg/kg or 72 μCi/kg) as described above. At 0.5 hours after administration, the rats were sacrificed; blood and brain were collected.
Determination of radioactivity in blood, plasma, brain homogenates and in urine, was carried out by direct liquid scintillation counting. Prior to radiometric determination, blood and tissue were solubilized in Solutron (Kontron Instruments, Zurich, Switzerland). After adding 10 mL of scintillation cocktail (Lumasafe, Lumac, Landgraaf, the Netherlands), all samples were counted in Tri-carb liquid scintillation analyzer (Canberra Packard, IL).
The procedure involved the addition of 5 μg of non-radiolabeled 42 to each blood sample as an internal standard. After adding 1 mL of acetonitrile, the sample was mixed with a Polytron mixer and centrifuged (234000×g, 30 minutes) in a Beckman centrifuge (Model TL100). The supernatant was evaporated in a vacuum centrifuge (Univapo 150H, Zivy). The residue was reconstituted in 250 μL of mobile phase-water (3:1 v/v) and centrifuged (3000×g, 60 s). The supernatant (200 μL) was injected onto HPLC. […] Compound 42 was separated from potential metabolites and endogenous compounds on a RP18 endcapped Superspher column, 125 mm×4 mm (Merck) at 45° C. The mobile phase consisted of 0.1% tetramethylammonium hydroxide—acetonitrile (500:500 v/v). The flow rate was 1 mL/min; the effluent was monitored at 260 nm. […] The limit of quantification was 0.3 ng/mL.
The peeling method was applied to describe the data by a compartment model approach, characterized by the following equation: C═C1*e^λ1−t+C2*e^λ2−t. The initial estimates of C1, λ1, C2, λ2 were taken to generate the best fit using the computer software ELSFIT. The estimates for half-lives were calculated as T1/2λi=ln2/λi.

For `N#Cc1cc(S(=O)(=O)N2C(=O)N(CCCCCN)C(=O)C2Cc2c[nH]c3ccccc23)ccc1Oc1ccc(N)cc1` (centres unmarked) [Compound 42], in series [1], the “unidirectional brain extraction (BUI experiments), Ringer buffer” value was 41%. The “Urinary excretion of parent drug” value in series [2] (0-48 hours after single intravenous 1 mg/kg [^14C]-42, individual animals, 1 mg/kg) is 0.96 % of dose and 1.98 % of dose and 1.97 % of dose; in series [2] (0-48 hours after single intravenous 1 mg/kg [^14C]-42, mean of 3 animals), 1.64 % of dose; in series [2] (0-48 hours after single oral 10 mg/kg [^14C]-42, individual animals, 10 mg/kg), 0.001 % of dose and 0.053 % of dose and 0.114 % of dose; in series [2] (0-48 hours after single oral 10 mg/kg [^14C]-42, mean of 3 animals), 0.056 % of dose. The “drug-related material in blood” value in series [2] (rat blood extracts after intravenous dosing) is “mainly of unchanged drug”. The bioavailability (as a rule, the share of a dose that reaches the circulation, judged against a reference dose that is usually intravenous) in “in vivo” worked out at 1.3 ± 0.9%. Also, in “in vivo” (iv, 1 mg/kg), the Vd (in general, a proportionality between amount in the body and measured concentration, not a real space) came out at 20 L/kg. For the same compound, the clearance (as a rule, a measure of how efficiently the substance is removed, as volume per time) in “in vivo” (iv, 1 mg/kg) was found to be 4.5 mL/min. Further, the half-life – broadly, the time in which the quantity being followed falls by half – in the series “in vivo” (iv, first half-life t1/2λ1) is 0.45 h; in the series “in vivo” (iv, terminal half-life t1/2), 24 h.

Source of the values: patent US20040019092A1, “Non-peptide somatostatin receptor ligands” (priority 2001, published 2004).
